pIC50: −log10 of the molar value. Where two headings read alike, the source gives them in different places.
Assays:
[1] = test system: endothelial tube formation in co-cultures of ECFCs and ADSCs treated with VEGF; assay: cells; type: cell-based, human; conditions: for pIC50: read-out: VEGF_ADSC\ECFC Angio CD31 TubeArea summarized IC50
HeLa cells = assay: cells; type: cell-based;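 on Hela CellCycMod PI 4N summarized IC50: value tracks stimulation of 4N DNA content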
[2] = test system: ECFC/ADSC co-culture cell nuclei number; conditions: for pIC50: read-out: VEGF_ADSC\ECFC Angio Hoechst NucArea summarized IC50
[3] = assay number 14, 2N, read-out: Hela CellCycMod PI 2N summarized IC50
[4] = assay number 15, S phase, read-out: Hela CellCycMod PI S Phase summarized IC50
[5] = assay number 16, 4N, read-out: Hela CellCycMod PI 4N summarized IC50
[6] = assay number 17, MI, read-out: Hela CellCycMod PI MI summarized IC50
[7] = assay number 18, cell number, read-out: Hela CellCycMod PI Cell Number summarized IC50

| SMILES | VEGF_ADSC\ECFC Angio CD31 TubeArea IC50/EC50 [1] [µM] | Hela CellCycMod PI 2N IC50/EC50 (HeLa cells; assay number 14, 2N) [µM] | Hela CellCycMod PI S Phase IC50/EC50 (HeLa cells; assay number 15, S phase) [µM] | Hela CellCycMod PI 4N IC50/EC50 (HeLa cells; assay number 16, 4N) [µM] | Hela CellCycMod PI MI IC50/EC50 (HeLa cells; assay number 17, MI) [µM] | Hela CellCycMod PI Cell Number IC50/EC50 (HeLa cells; assay number 18, cell number) [µM] | VEGF_ADSC\ECFC Angio Hoechst NucArea IC50/EC50 [2] [µM] | other results |
| --- | --- | --- | --- | --- | --- | --- | --- | --- |
| O=C1c2c(O)cccc2Cc2cccc(O)c21 [NCGC00091330-07] | – | – | – | – | – | – | – | pIC50 [1]: 6.22; pIC50 (HeLa cells; [3]): < 5.00; pIC50 (HeLa cells; [4]): < 5.00; pIC50 (HeLa cells; [5]): < 5.00; pIC50 (HeLa cells; [6]): < 5.00; pIC50 (HeLa cells; [7]): < 5.00; pIC50 [2]: < 5.00 |
| CN(C)/N=N/c1nc[nH]c1C(N)=O [NCGC00091861-07] | – | – | – | – | – | – | – | IC50/EC50, VEGF_ADSC\ECFC Angio CD31 TubeArea (assay number 2) [1]: 4.5862 µM; IC50/EC50, Hela CellCycMod PI 2N (assay number 14) (HeLa cells; 2N): > 10 µM; IC50/EC50, Hela CellCycMod PI 4N (assay number 16) (HeLa cells; 4N): > 10 µM; IC50/EC50, Hela CellCycMod PI Cell Number (assay number 18) (HeLa cells): > 10 µM; IC50/EC50, Hela CellCycMod PI MI (assay number 17) (HeLa cells; MI): > 10 µM; IC50/EC50, Hela CellCycMod PI S Phase (assay number 15) (HeLa cells): > 10 µM; IC50/EC50, VEGF_ADSC\ECFC Angio Hoechst NucArea (assay number 3) [2]: > 10 µM |
| O=C(CCBr)N1CCN(C(=O)CCBr)CC1 [NCGC00095048-06] | 1.3723 | > 10 | > 10 | > 10 | > 10 | > 10 | > 10 | – |
| C1CN(P2(N3CC3)=NP(N3CC3)(N3CC3)=NP(N3CC3)(N3CC3)=N2)CCO1 (centres unmarked) [NCGC00160420-02] | 3.6152 | > 10 | > 10 | > 10 | > 10 | > 10 | > 10 | – |
| COc1ccc(/C=C/C(=O)c2ccc(OC)cc2OC)cc1 [NCGC00160442-03] | 6.6604 | > 10 | – | > 10 | > 10 | 0.7082 | > 10 | – |
| COCCOC(=O)C1=C(C)NC(C)=C(C(=O)OC/C=C/c2ccccc2)C1c1cccc([N+](=O)[O-])c1 (centres unmarked) [NCGC00162150-04] | 6.4204 | > 10 | > 10 | > 10 | > 10 | > 10 | > 10 | – |
| CCCCCCCCCCCC(=O)[O][Sn]([CH2]CCC)([CH2]CCC)[O]C(=O)CCCCCCCCCCC [NCGC00166115-02] | – | – | – | – | – | – | – | pIC50 [1]: 5.70; pIC50 (HeLa cells; [3]): < 5.00; pIC50 (HeLa cells; [4]): < 5.00; pIC50 (HeLa cells; [5]): < 5.00; pIC50 (HeLa cells; [6]): < 5.00; pIC50 (HeLa cells; [7]): < 5.00; pIC50 [2]: < 5.00 |
| C[C@]12CC[C@@H]3c4ccc(O)cc4CC[C@H]3[C@@H]1CC[C@@H]2OC(=O)CCC1CCCC1 [NCGC00166134-02] | 6.3667 | > 10 | > 10 | > 10 | > 10 | > 10 | > 10 | – |
| CCCCCCC[N+](CC)(CC)CCCCc1ccc(Cl)cc1.Cc1ccc(S(=O)(=O)[O-])cc1 [NCGC00168464-04] | – | – | – | – | – | – | – | IC50/EC50, VEGF_ADSC\ECFC Angio CD31 TubeArea (assay number 2) [1]: 6.3375 µM; IC50/EC50, Hela CellCycMod PI 2N (assay number 14) (HeLa cells; 2N): > 10 µM; IC50/EC50, Hela CellCycMod PI 4N (assay number 16) (HeLa cells; 4N): > 10 µM; IC50/EC50, Hela CellCycMod PI Cell Number (assay number 18) (HeLa cells): > 10 µM; IC50/EC50, Hela CellCycMod PI MI (assay number 17) (HeLa cells; MI): > 10 µM; IC50/EC50, VEGF_ADSC\ECFC Angio Hoechst NucArea (assay number 3) [2]: > 10 µM |
| CC(=O)N(O)CCCCCNC(=O)CCC(=O)N(O)CCCCCNC(=O)CCC(=O)N(O)CCCCCN [NCGC00178802-06] | – | – | – | – | – | – | – | IC50/EC50, VEGF_ADSC\ECFC Angio CD31 TubeArea (assay number 2) [1]: 4.5338 µM; IC50/EC50, Hela CellCycMod PI 2N (assay number 14) (HeLa cells; 2N): > 10 µM; IC50/EC50, Hela CellCycMod PI 4N (assay number 16) (HeLa cells; 4N): > 10 µM; IC50/EC50, Hela CellCycMod PI Cell Number (assay number 18) (HeLa cells): > 10 µM; IC50/EC50, Hela CellCycMod PI MI (assay number 17) (HeLa cells; MI): > 10 µM; IC50/EC50, Hela CellCycMod PI S Phase (assay number 15) (HeLa cells): > 10 µM; IC50/EC50, VEGF_ADSC\ECFC Angio Hoechst NucArea (assay number 3) [2]: > 10 µM |
| C[C@@H]1C[C@H]2[C@@H]3CCC4=CC(=O)C=C[C@]4(C)[C@@]3(Cl)[C@@H](O)C[C@]2(C)[C@@]1(OC(=O)c1ccco1)C(=O)CCl [NCGC00179578-03] | 4.9886 | > 10 | > 10 | > 10 | > 10 | – | > 10 | – |
| O=c1[nH]c(=O)n([C@H]2C[C@H](O)[C@@H](CO)O2)cc1I [NCGC00179673-03] | – | – | – | – | – | – | – | pIC50 [1]: 6.17; pIC50 (HeLa cells; [3]): < 5.00; pIC50 (HeLa cells; [4]): < 5.00; pIC50 (HeLa cells; [5]): < 5.00; pIC50 (HeLa cells; [6]): < 5.00; pIC50 (HeLa cells; [7]): < 5.00; pIC50 [2]: < 5.00 |
| Clc1ccc(Nc2nnc(Cc3ccncc3)c3ccccc23)cc1 [NCGC00181350-03] | 0.1109 | > 10 | > 10 | > 10 | > 10 | > 10 | > 10 | – |
| Nc1nc(F)nc2c1ncn2[C@@H]1O[C@H](CO)[C@@H](O)[C@@H]1O [NCGC00182047-03] | 8.4496 | > 10 | > 10 | > 10 | > 10 | > 10 | > 10 | – |
| CC(=O)Nc1ccn(C2COC(COC(=O)c3ccccc3)O2)c(=O)n1 (centres unmarked) [NCGC00183850-01] | 2.3271 | > 10 | 0.312 | > 10 | > 10 | 0.2813 | > 10 | – |
| CC(C)OC(=O)OCOP(=O)(CO[C@H](C)Cn1cnc2c(N)ncnc21)OCOC(=O)OC(C)C.O=C(O)/C=C/C(=O)O [NCGC00183876-03] | 3.8408 | > 10 | – | > 10 | > 10 | 0.2888 | > 10 | – |
| Cc1ccc(Nc2nccc(N(C)c3ccc4c(C)n(C)nc4c3)n2)cc1S(N)(=O)=O [NCGC00188865-03] | 0.0465 | > 10 | > 10 | > 10 | > 10 | > 10 | > 10 | – |
| CC(C)=CCC/C(C)=C/CC/C(C)=C/C(=O)OCC(=O)[C@@]1(O)CC[C@H]2[C@@H]3CCC4=CC(=O)C=C[C@]4(C)[C@H]3[C@@H](O)C[C@@]21C [NCGC00261967-01] | 3.3384 | > 10 | > 10 | > 10 | > 10 | 0.05952 | > 10 | – |
| CCCCCCCCCCCCCCCCNc1ccc(C(=O)O)cc1 [NCGC00261985-01] | 0.3673 | > 10 | – | > 10 | > 10 | > 10 | > 10 | – |
